The subject of this assay is CCRF-CEM cancer cells - leukaemia. The assay can be described thus: Fluorometric Microculture Cytotoxicity Assay (FMCA), CCRF-CEM. As to conditions: Homo sapiens, 72 h incubation. It is filed as cell-based. The text has this:
The Fluorometric Microculture Cytotoxicity Assay, FMCA, is a three day non-clonogenic microplate-based cell viability assay used for measurement of the cytotoxic and/or cytostatic effect of compounds in vitro (Lindhagen, E., et al. Nat Protoc, 2008. 3(8): p. 1364-9). FMCA (Larsson, R. and P. Nygren, Anticancer Res, 1989. 9(4): p. 1111-9) represents a valuable method to measure cytotoxicity in a number of cell types, both cell lines and primary cells from patients (Larsson, R., et al., Int J Cancer, 1992. 50(2): p. 177-85; Fridborg, H., et al., Eur J Cancer, 1999. 35(3): p. 424-32; Dhar, S., et al., Br J Cancer, 1996. 74(6): p. 888-96).
FMCA is based on the principle that fluorescein diacetate (FDA) is converted to the fluorescent probe fluorescein by esterases in the plasma membranes of living cells. For experiments, 96 or 384-well microplates are prepared with compounds and stored at −70° C. until use. Cells are then seeded into the drug-prepared plates and placed in an incubator for 72 h. On the last day of incubation, the plates are washed and a buffer containing FDA is added and incubated with the cells for 45 minutes. Finally the fluorescence per well is measured in a fluorometer and a Survival Index % (SI) for each compound-treated well is calculated with the equation: Compound-treated cells minus blank divided by control cells minus blank. A high SI-value indicates a large percentage of living cells and vice versa.
In subsequent experiments, compounds were tested, along with kinase inhibitors (dasatinib, pazopanib, sorafenib, and sunitinib) as described above. Initially, the acute lymphoblastic leukaemia cell line CCRF-CEM (see e.g. Foley G E, et al. Cancer 1965, 18, 522-529) was used throughout. In the assay plates, medium was added to six empty wells (blank wells) and wells were filled with PBS and cell suspension and served as control wells. SI-values were then calculated for each compound-treated well as described above. All experiments were conducted twice and a new batch of plates was prepared for each experiment.
For dose-response experiments, 384-well plates were prepared as follows:
Compounds of the invention as well as kinase inhibitors sorafenib, sunitinib, dasatinib, and pazopanib (reference compounds) were diluted with PBS to a concentration which was ten-times higher than the desired starting concentration. Then, a Biomek 2000 liquid handling system was employed to serially dilute the compounds in a deep-well 384-well plate. From this plate, assay plates containing 5 μl compound per well were prepared with the Biomek 2000. Certain compounds precipitated when diluted with PBS, and these compounds were therefore prepared in a 96-well plate manually as described above using culture medium RPMI 1640 instead of PBS.
The compounds were also tested at five concentrations, with five times serial dilution on the following cell types: CCRF-CEM, hTERT-RPE1 (normal retinal epithelial cells), hRPTEpiC (normal renal cells) and PBMC (peripheral blood mononuclear cells). Each experiment was performed three times, except for PBMC and hRPTEpiC, which were performed twice. SI-values were calculated, graphs were plotted using GraphPadPrism 5.0 (GraphPad Software Inc. La Jolla, Calif.) and EC50-values for each cell type and compound were determined from the curves.

Structures are written as SMILES.

For orientation: EC50 means the concentration giving half of the maximal effect. Higher therefore signals a less potent agent. As to `c1cc(NCc2ccc3[nH]ccc3c2)nc(Nc2ccc3[nH]ccc3c2)n1` [Example 2, N^4-(1H-indol-5-ylmethyl)-N^2-(1H-indol-5-yl)pyrimidine-2,4-diamine], the response was half-maximal at 4.83 µM (EC50).

`Cc1cc2cc(Nc3nccc(NCc4ccc5[nH]ccc5c4)n3)ccc2[nH]1` [Example 3, N^4-(1H-indol-5-ylmethyl)-N^2-(2-methyl-1H-indol-5-yl)pyrimidine-2,4-diamine] displayed a concentration for a half-maximal effect (EC50) of 4.25 µM.

Regarding `c1cc(NCc2ccc3[nH]ccc3c2)nc(Nc2ccc3[nH]ncc3c2)n1` [Example 4, N^4-(1H-indol-5-ylmethyl)-N^2-(1H-indazol-5-yl)pyrimidine-2,4-diamine], the midpoint of the response, the EC50, lay at 4.07 µM.

Compound `c1ccc2c(CCNc3nccc(NCc4ccc5[nH]ccc5c4)n3)c[nH]c2c1` [Example 9, N^2-[2-(1H-indol-3-yl)ethyl]-N^4-(1H-indol-5-ylmethyl)pyrimidine-2,4-diamine] registered an EC50 of 8.73 µM.

Turning to `Oc1ccc2[nH]cc(CCNc3nccc(NCc4ccc5[nH]ccc5c4)n3)c2c1` [Example 10, 3-{2-[4-(1H-indol-5-ylmethylamino)-pyrimidin-2-ylamino]ethyl}-1H-indol-5-ol], the midpoint of the response, the EC50, lay at 10.2 µM.

Consider `Cc1ccc2[nH]cc(CCNc3nccc(NCc4ccc5[nH]ccc5c4)n3)c2c1` [Example 11, N^4-(1H-indol-5-ylmethyl)-N^2-[2-(5-methyl-1H-indol-3-yl)ethyl]pyrimidine-2,4-diamine], for which the EC50 is 2.88 µM.

The compound `Cc1cc2cc(CNc3ccnc(Nc4cccc5[nH]ccc45)n3)ccc2[nH]1` [Example 13, N^2-(1H-indol-4-yl)-N^4-(2-methyl-1H-indol-5-ylmethyl)pyrimidine-2,4-diamine] displayed an EC50 of 0.55 µM.

In turn, `Cc1cc2cc(CNc3ccnc(NCCc4c[nH]c5ccccc45)n3)ccc2[nH]1` [Example 17, N^2-(2-(1H-indol-3-yl)-ethyl)-N^4-(2-methyl-1H-indol-5-ylmethyl)pyrimidine-2,4-diamine] registered an EC50 of 7.28 µM. Against the preceding compound, the EC50 is about 13-fold higher.

`c1cc(Nc2nccc(NCc3ccc4[nH]ncc4c3)n2)c2cc[nH]c2c1` [Example 18, N^2-(1H-indol-4-yl)-N^4-(1H-indazol-5-ylmethyl)pyrimidine-2,4-diamine]: the EC50 amounted to 0.71 µM.

Turning to `c1cc(Nc2nccc(NCc3ccc4cc[nH]c4c3)n2)c2cc[nH]c2c1` [Example 20, N^4-(1H-indol-6-ylmethyl)-N^2-(1H-indol-4-yl)pyrimidine-2,4-diamine], a half-maximal effect (EC50) was put at 1.01 µM.

Compound `c1cc(Nc2ccnc(NCc3ccc4[nH]ccc4c3)n2)c2cc[nH]c2c1` [Example 23, N^2-(1H-indol-5-ylmethyl)-N^4-(1H-indol-4-yl)pyrimidine-2,4-diamine] registered an EC50 of 1.62 µM.

As to `c1ccc2c(CCNc3ccnc(NCc4ccc5[nH]ccc5c4)n3)c[nH]c2c1` [Example 25, N^4-[2-(1H-indol-3-yl)ethyl]-N^2-(1H-indol-5-ylmethyl)pyrimidine-2,4-diamine], the EC50 turned out to be 3.16 µM.

`Oc1ccc2[nH]cc(CCNc3ccnc(NCc4ccc5[nH]ccc5c4)n3)c2c1` [Example 26, 3-{2-[2-(1H-indol-5-ylmethylamino)-pyrimidin-4-ylamino]ethyl}-1H-indol-5-ol] showed an EC50 of 7.01 µM.

As for `Cc1ccc2[nH]cc(CCNc3ccnc(NCc4ccc5[nH]ccc5c4)n3)c2c1` [Example 27, N^2-(1H-indol-5-ylmethyl)-N^4-[2-(5-methyl-1H-indol-3-yl)ethyl]pyrimidine-2,4-diamine], the EC50 turned out to be 4.17 µM. This EC50 lies about 1.7-fold lower than the previous one.

`COc1ccc2[nH]cc(CCNc3ccnc(NCc4ccc5[nH]ccc5c4)n3)c2c1` [Example 28, N^2-(1H-indol-5-ylmethyl)-N^4-[2-(5-methoxy-1H-indol-3-yl)ethyl]pyrimidine-2,4-diamine] came in with an EC50 of 3.1 µM.

Take `c1cc(Nc2ccnc(NCc3ccc4[nH]ncc4c3)n2)c2cc[nH]c2c1` [Example 29, N^2-(1H-indazol-5-ylmethyl)-N^4-(1H-indol-4-yl)pyrimidine-2,4-diamine]: a half-maximal effect (EC50) was put at 2.78 µM. The EC50 values of the last two compounds are within 1.5-fold of each other.

For `Cc1cc(NCc2ccc3[nH]ccc3c2)nc(NCCc2c[nH]c3ccc(O)cc23)n1` [Example 32, 3-{2-[4-(1H-indol-5-ylmethylamino)-6-methyl-pyrimidin-2-ylamino]-ethyl}-1H-indol-5-ol], the EC50 came out at 7.81 µM.

`Cc1cc2cc(Nc3nc(NCc4ccc5[nH]ccc5c4)cc(C(F)(F)F)n3)ccc2[nH]1` [Example 33, N^4-(1H-indol-5-ylmethyl)-N^2-(2-methyl-1H-indol-5-yl)-6-trifluoromethylpyrimidine-2,4-diamine] gave a concentration giving a half-maximal response (EC50) of 9.55 µM.

Compound `FC(F)(F)c1cc(NCc2ccc3[nH]ccc3c2)nc(NCCc2c[nH]c3ccccc23)n1` [Example 35, N^2-(2-(1H-indol-3-yl)ethyl)-N^4-(1H-indol-5-ylmethyl)-6-trifluoromethylpyrimidine-2,4-diamine] had an EC50 of 10.1 µM.

`Nc1cnc(Nc2cccc3[nH]ccc23)nc1NCc1ccc2[nH]ccc2c1` [Example 38, N^4-(1H-indol-5-ylmethyl)-N^2-(1H-indol-4-yl)pyrimidine-2,4,5-triamine]: the EC50 is 4.33 µM.

Regarding `Nc1cnc(Nc2ccc3[nH]ccc3c2)nc1NCc1ccc2[nH]ccc2c1` [Example 39, N^4-(1H-indol-5-ylmethyl)-N^2-(1H-indol-5-yl)pyrimidine-2,4,5-triamine], the EC50 stood at 2.84 µM.

Regarding `Nc1cnc(Nc2ccc3cc[nH]c3c2)nc1NCc1ccc2[nH]ccc2c1` [Example 40, N^4-(1H-indol-5-ylmethyl)-N^2-(1H-indol-6-yl)pyrimidine-2,4,5-triamine], the half-maximal effective concentration (EC50) was 4.17 µM.

For the compound `Cc1cc2cc(CNc3nccc(Nc4ccc5[nH]c(C)cc5c4)n3)ccc2[nH]1` [Example 63, N^4-(2-methyl-1H-indol-5-yl)-N^2-(2-methyl-1H-indol-5-ylmethyl)pyrimidine-2,4-diamine], the concentration for a half-maximal effect (EC50) is 0.59 µM.

`Cc1cc2cc(Nc3ccnc(NCc4ccc5[nH]ncc5c4)n3)ccc2[nH]1` [Example 65, N^2-(1H-indazol-5-ylmethyl)-N^4-(2-methyl-1H-indol-5-yl)pyrimidine-2,4-diamine] came in with an EC50 of 0.92 µM.

`COc1ccc2[nH]cc(CCNc3nccc(NCc4ccc5[nH]cnc5c4)n3)c2c1` [Example 69, N^4-(1H-benzo[d]imidazol-5-ylmethyl)-N^2-[2-(5-methoxy-1H-indol-3-yl)ethyl]pyrimidine-2,4-diamine]: the EC50 was less than 10 µM.

In turn, `Cc1cc2cc(Nc3ccnc(NCc4ccc5cc[nH]c5c4)n3)ccc2[nH]1` [Example 70, N^2-(1H-indol-6-ylmethyl)-N^4-(2-methyl-1H-indol-5-yl)pyrimidine-2,4-diamine] showed an EC50 of less than 10 µM.

`COc1ccc2[nH]cc(CCNc3nccc(NCc4ccc5cc[nH]c5c4)n3)c2c1` [Example 71, N^4-(1H-indol-6-ylmethyl)-N^2-[2-(5-methoxy-1H-indol-3-yl)ethyl]pyrimidine-2,4-diamine]: the EC50 was less than 10 µM.

`c1ccc(COc2ccc3[nH]cc(CCNc4nccc(NCc5ccc6[nH]ccc6c5)n4)c3c2)cc1` [Example 72, N^4-(1H-indol-5-ylmethyl)-N^2-{2-[5-(benzyloxy)-1H-indol-3-yl]ethyl}pyrimidine-2,4-diamine]: the EC50 is less than 10 µM.

On to `c1cc(NCc2ccc3[nH]ccc3c2)nc(NCCc2c[nH]c3ccc(OCCN4CCOCC4)cc23)n1` [Example 73, N^4-(1H-indol-5-ylmethyl)-N^2-{2-[5-(2-morpholinoethoxy)-1H-indol-3-yl]ethyl}pyrimidine-2,4-diamine], for which the EC50 is less than 10 µM.

`COCCOc1ccc2[nH]cc(CCNc3nccc(NCc4ccc5[nH]ccc5c4)n3)c2c1` [Example 74, N^4-(1H-indol-5-ylmethyl)-N^2-{2-[5-(2-methoxyethoxy)-1H-indol-3-yl]ethyl}pyrimidine-2,4-diamine] returned an EC50 of less than 10 µM.

`Cn1ccc2c(Nc3nccc(NCc4ccc5[nH]ccc5c4)n3)cccc21` [Example 75, N^4-(1H-indol-5-ylmethyl)-N^2-(1-methyl-1H-indol-4-yl)pyrimidine-2,4-diamine] had an EC50 of 0.61 µM.

`COC(=O)c1cc(Nc2nccc(NCc3ccc4[nH]ccc4c3)n2)c2cc[nH]c2c1` [Example 81, Methyl 4-[4-(1H-indol-5-ylmethylamino)pyrimidin-2-ylamino]-1H-indole-6-carboxylate] displayed an EC50 of less than 10 µM.

(Values after US8927547B2, “Pyrimidine derivatives” (Noviga Research AB, priority 2010, dated 2015).)
